In patent US20130039956A1, “USE OF NITROCARBOXYLIC ACIDS FOR THE TREATMENT, DIAGNOSIS AND PROPHYLAXIS OF AGGRESSIVE HEALING PATTERNS” (priority 2010, published 2013):

Key:
pericardial strips = assay: Cold induced injury in a whole tissue ex-vivo model (pericardium); type: cell-based, Wistar rats; conditions: control sample incubated with all-caspase inhibitor before cold
From the text: To determine whether nitrated fatty acids can be used to preserve cells and tissues from cold or cryoinjury, an in vitro model utilizing murine epicardium was established. The experimental set-up should reduce the possibility of ischemia or reperfusion injury to a minimum, but at the same time allow differentiation of the contribution of ischemia/reperfusion injury-triggered cell death, which is known to occur almost exclusively via apoptosis, whereas cell death induced by cold injury almost exclusively results in necrosis.
The pericardial sac was carefully resected in 24 anesthetized Wistar rats (180-270 g) of either sex. Care was taken to grasp the pericardium with a forceps only at the cutting edges and reduce traumatization of the central portions of the pericardium to a minimum. After resection, the cutting edge and the former apex area of the pericardium were dissected, as to obtain flat tissue strips which were placed immediately in the culture medium (DMEM) containing 10% FCS and antibiotics (penicillin, streptomycin). Tissue samples were cultured in an oxygen atmosphere at 18° C. for 2 days. […] Then the pericardial strips were cut into 4 pieces of equal size. One piece was further cultivated at 37° C. without undergoing the cooling cycles, thus, serving as the control. In each of three investigations, one piece was bathed in a solution (0.9% saline and 1% SDS) containing 200 μmol nitro-fatty acid or contained 200 μmol of the corresponding native fatty acid, for 10 min at a temperature of 18° C. One piece of pericardium was bathed in a solution without fatty acids under otherwise identical conditions. All samples were cooled by continuously decreasing from ambient temperature at a rate of 3° C./min to a minimum temperature of […]. After 1 hour, the samples were rewarmed at a rate of 3° C./min by continuously increasing the temperature until a temperature of 18° C., was achieved. Thereafter an identical cooling and rewarming cycle was performed. After the second cooling cycle, the tissue pieces were further cultured in the culture medium for 1 day allowing continuous adaptation to an ambient temperature of 37° C. For analytical preparations the pericardial pieces were out and further processed. A direct TUNEL assay (Roche) was use for quantification of apoptosis, an annexin V/propidium iodide exclusion assay (Roche) was used to quantify the number of necrotic cells, and viability was determined by the WST-8 assay. Furthermore, the LDH release was quantified in the supernatants.
To rule out that cell death has been induced by ischemia or reperfusion (reoxygenation), in one series of experiments, a control sample was incubated with an all-caspase inhibitor (Q-VD-OPH, BioVision, USA) reconstituted in DMSO before the sample was exposed to cold.

TRPV-1 = target: T1, TRPV-1 (Mus musculus, UniProt Q704Y3); assay: Signal transduction of receptors of the TRP-protein family in retinal slices; type: cell-based, mice; conditions: preincubation (5 minutes) of TRPV-1 antagonist, saline specimens
T1 construct: Whole retinas were isolated and cut into 100 μm slices using a tissue slicer; from tissue; host or cells: mouse retinal slices (100 μm)
Experimental: In order to determine the effect of nitrated fatty acids on receptor signal transduction, an in vitro model was used. Retinal slices from cadaver mice were prepared as described by Snellman and Nawy (Snellman J. Nawy S (2004). cGMP-dependent kinase regulates response sensitivity of the mouse on bipolar cell. J Neurosci 24:6621-6628). Whole retinas were isolated and cut into 100 μm slices using a tissue slicer and than transferred to the recording chamber. The chamber was continuously perfused with Ames media and oxygenated. Picrotoxin (100 μM), strychnine (10 μM), and TPMPA (50 μM) were added. Each nitro fatty acid was added in two experiments to achieve a final concentration of 10 μmol, and in another two experiments to achieve a final concentration of 50 μmol. In two experiments, the corresponding native fatty acid was added to achieve a final concentration of 10 and 50 μmol, and in two experiments saline solution was added which served as controls. Currents were measured via tissue electrodes and monitored throughout the investigation. After incubating the solution for 2 hours, the TRPV-1 agonist capsaicin was added to achieve a final concentration of 10 μmol. Experiments were performed using either 10 mmol Hepes or 10 mmol Mes adjusting the pH of the solution to 6.4 or 4.4, respectively. Furthermore, experiments were performed without or with preincubation (5 minutes) of the TRPV-1 antagonist capsazepine. The solution temperature was held constant at 35° C.

T1 sequence (Q704Y3 whole entry): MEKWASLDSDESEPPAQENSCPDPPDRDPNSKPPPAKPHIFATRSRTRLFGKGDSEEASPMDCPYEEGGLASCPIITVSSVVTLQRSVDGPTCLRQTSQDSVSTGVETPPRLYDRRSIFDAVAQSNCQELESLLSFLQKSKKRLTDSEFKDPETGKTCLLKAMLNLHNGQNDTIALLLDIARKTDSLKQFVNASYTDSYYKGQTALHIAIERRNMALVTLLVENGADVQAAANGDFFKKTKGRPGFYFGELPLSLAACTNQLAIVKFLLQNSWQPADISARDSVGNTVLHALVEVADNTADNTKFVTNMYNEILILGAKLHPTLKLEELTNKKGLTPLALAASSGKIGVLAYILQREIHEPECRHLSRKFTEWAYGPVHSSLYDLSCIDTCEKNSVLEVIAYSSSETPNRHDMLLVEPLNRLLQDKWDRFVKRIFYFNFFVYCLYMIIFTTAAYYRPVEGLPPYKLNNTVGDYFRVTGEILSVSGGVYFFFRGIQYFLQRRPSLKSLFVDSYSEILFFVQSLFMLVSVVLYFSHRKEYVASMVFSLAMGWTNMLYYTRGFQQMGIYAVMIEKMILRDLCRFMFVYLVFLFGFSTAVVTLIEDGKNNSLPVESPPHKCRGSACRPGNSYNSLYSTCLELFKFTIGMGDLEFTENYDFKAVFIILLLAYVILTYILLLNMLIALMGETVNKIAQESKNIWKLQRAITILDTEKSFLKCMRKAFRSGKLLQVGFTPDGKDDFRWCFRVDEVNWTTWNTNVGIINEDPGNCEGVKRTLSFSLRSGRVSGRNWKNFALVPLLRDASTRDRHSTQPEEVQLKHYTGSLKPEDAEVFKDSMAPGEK

CC(C)[C@H](NC(=O)c1ccc2ccccc2n1)C(=O)N[C@@H](CC(=O)O)C(=O)COc1c(F)cccc1F [Q-VD-OPH, reference compound]
rate of cells undergoing apoptosis (pericardial strips): within the range found in the cold-exposed control samples

Oc1cc2c(cc1O)CN(C(=S)NCCc1ccc(Cl)cc1)CCC2 [capsazepine, reference compound]
capsaicin effect (induced current) (TRPV-1): inhibited
